Test [1] concerns the target T1, γ-secretase (cleavage of APP, Aβ42) (Homo sapiens, UniProt P49768).
T1 construct: endogenous in cells; host or cells: HEK AP-GL-T16 luciferase reporter cells (tetracycline-induced APP substrate)
Put plainly: Aβ (1-42) cellular assay (Aβ ELISA, HEK AP-GL-T1 6 cells). It is filed as cell-based. To be noted: for IC50: cellular Aβ42 ELISA, 24 h compound treatment; for inhibition at 1 µM: at 1 μM (concentration in brackets). Here is the method:
Aβ (1-42) Cellular Assay.
The following assay was used to determine the extent to which the compounds of interest inhibit the cleavage of APP in vivo. AβELISA is a commercial fluorometric kit from Biosource (Invitrogen 89344). Luciferase reporter HEK AP-GL-T1 6 cells were plated at 50,000 cells/well in 96 well plates in DMEM media containing 10% tetracyclin free […], 250 μg/mL zeocin, 200 μg/mL hygromycin, and 5 μg/mL blasticidin. Compounds were added 24 h after plating and APP processing is induced simultaneously by addition of tetracycline. Following a 24 h compound treatment, […] of conditioned cell media is collected, mixed with ELISA diluent buffer containing 2 mM AEBSF and 12 mM o-phenanthroline, and immediately frozen at −80° C. For the ELISA, the samples were brought to room temperature and spun at 5000 rpm for 5 min. Samples ([…]) are incubated in the ELISA plate with […] detection antibody on a shaker at room temperature for 3 h. Wells were then washed 4 times with wash buffer and 100 mL of secondary antibody are added and incubated at room temperature for 30 min. Wells were again washed 4 times with wash buffer and 100 mL of fluorescent substrate solution are added. After 30 minutes of incubation, fluorescent signals are determine on a Gemini reader at ex 460 nm and em 560 nm. The amount of Aβ levels in each sample was determined from a standard curve generated by known concentrations of Aβ peptide run simultaneously with the samples.

The target of test [2] is T2, γ-secretase (Notch cleavage activity) (Homo sapiens, UniProt P49768).
T2 construct: endogenous in cells; host or cells: SUP-T1 cells
Put plainly: Cleaved Notch1 Sandwich ELISA (SUP-T1 cell line). The class given is cell-based. To be noted: for IC50: SUP-T1 cells, 16 h; for Notch Elisa/Aβ42: ratio Notch Elisa IC50 to Aβ42 IC50. Here is the method:
Cleaved Notch1 Sandwich ELISA.
This assay was used to determine if the compounds of interest inhibit the Notch cleavage activity of γ-secretase in SUP-T1 cell line, which endogenously expresses a truncated Notch receptor fragment that is a viable gamma-secretase substrate. The base medium for this cell line is ATCC-formulated RPMI-1640 Medium with fetal bovine serum to a final concentration of 10%. Prepare dilution of SUP-T1 cells in complete growth medium to 1.0×10^6 cells/mL, seed 1.5 mL per well of each cell dilution into a 6-well plate. Collect cells treated with serial diluted compounds in DMSO after 16 h, then using equal amount of protein isolated from samples to measure Notch intracellular cleavage by PathScan® Sandwich ELISA Kit (Cell Signaling Tech 7194S).
(In general: In an ELISA, binding on a coated surface is turned into a signal by an enzyme label.)

Where “and” joins values, the source holds several entries; their conditions need not be identical. Identical values can stand only once. Counter-ions that a name gives are not always drawn.

As for `O=C(O)c1ccc(CN(C2CCCC(C(F)(F)F)C2)S(=O)(=O)c2ccc(Cl)cc2)cc1` (single isomer, unassigned) [Example 52, 4-((4-Chloro-N-(3-(trifluoromethyl)cyclohexyl)phenylsulfonamido)methyl)benzoic acid], the IC50 in test [1] is 47.6 nM; in test [2] it was 1880 nM. In addition, the “Notch Elisa/Aβ42” value in test [2] (listed as 52/1227C) is on record as 40.

Turning to `O=C(O)c1ccc(CN(C2CCCC(C(F)(F)F)C2)S(=O)(=O)c2ccc(Cl)cc2)cc1` (single isomer, unassigned) [Example 53, 4-((4-Chloro-N-(3-(trifluoromethyl)cyclohexyl)phenylsulfonamido)methyl)benzoic acid], the IC50 in test [1] came to 1190 nM; in test [2] it was 34800 nM. Further, in test [2] (listed as 53/1227D), the “Notch Elisa/Aβ42” value is 29.

Regarding `COC(=O)c1cc(CN(C2CCOCC2)S(=O)(=O)c2ccc(Cl)cc2)ccc1OC` [Example 7, Methyl 5-((4-chloro-N-(tetrahydro-2H-pyran-4-yl)phenylsulfonamido)methyl)-2-methoxybenzoate], the inhibition at 1 µM in test [1] (read-out: Aβ42 % Inh) is 0%.

`COC(=O)c1ccc(CN(C2CCOCC2)S(=O)(=O)c2ccc(Cl)cc2)cc1` [Example 12, Methyl 4-((4-chloro-N-(tetrahydro-2H-pyran-4-yl)phenylsulfonamido)methyl)-benzoate]: in test [1] (read-out: Aβ42 % Inh), the inhibition at 1 µM came to 0%.

Regarding `CC1CCCCC1N(Cc1ccc(C(=O)NCCN2CCCC2)cc1)S(=O)(=O)c1ccc(Cl)cc1` (centres unmarked) [Example 38, 4-((4-Chloro-N-(2-methylcyclohexyl)phenylsulfonamido)methyl)-N-(2-(pyrrolidin-1-yl)ethyl)benzamide], the IC50 in test [1] was 8.3 nM and 12.8 nM; in test [2] it was 667 nM. Moreover, the “Notch Elisa/Aβ42” value in test [2] turned out to be 64.

For `CCN(CCN1CCCC1)C(=O)c1ccc(CN(C2CCCCC2C)S(=O)(=O)c2ccc(Cl)cc2)cc1` (centres unmarked) [Example 39, 4-((4-Chloro-N-(2-methylcyclohexyl)phenylsulfonamido)methyl)-N-ethyl-N-(2-(pyrrolidin-1-yl)ethyl)benzamide], the IC50 in test [1] is 40.7 nM and 77.4 nM. Moreover, in test [2], the IC50 came out at 2260 nM and the “Notch Elisa/Aβ42” value turned out to be 38.

Take `CC1CCCCC1N(Cc1ccc(C(=O)NCCN(C)C)cc1)S(=O)(=O)c1ccc(Cl)cc1` (centres unmarked) [Example 41, 4-((4-Chloro-N-(2-methylcyclohexyl)phenylsulfonamido)methyl)-N-(2-(dimethylamino)ethyl)benzamide hydrochloride]: the IC50 in test [1] is 5.8 nM and 10.9 nM. For the same molecule, in test [2], the IC50 was 675 nM and 850 nM; the “Notch Elisa/Aβ42” value amounted to 91.

Regarding `COC(=O)c1ccc(CN(C2CCCC(C)C2)S(=O)(=O)c2ccc(Cl)cc2)cc1` (centres unmarked) [Example 42, Methyl 4-((4-chloro-N-(3-methylcyclohexyl)phenylsulfonamido)methyl)benzoate], in test [1], half-maximal inhibition (IC50) required 9.44 nM.

In the case of `CC1CCCC(N(Cc2ccc(C(=O)O)cc2)S(=O)(=O)c2ccc(Cl)cc2)C1` (centres unmarked) [Example 43, 4-((4-Chloro-N-(3-methylcyclohexyl)phenylsulfonamido)methyl)benzoic acid], the IC50 in test [1] was 148 nM; in test [2], 2820 nM and 2730 nM. Moreover, the “Notch Elisa/Aβ42” value in test [2] is 19.

On to `CC1CCCCC1N(Cc1ccc(C(=O)O)cc1)S(=O)(=O)c1ccc(Cl)nc1` (centres unmarked) [Example 44, 4-((6-Chloro-N-(2-methylcyclohexyl)pyridine-3-sulfonamido)methyl)benzoic acid], for which the IC50 in test [1] was 6.4 nM and 20 nM. In test [2], the IC50 is 2980 nM and 2730 nM; the “Notch Elisa/Aβ42” value is listed as 220.

`COC(=O)c1ccc(CN(C2CCCC(C(F)(F)F)C2)S(=O)(=O)c2ccc(Cl)cc2)cc1` (centres unmarked) [Example 49, Methyl 4-((4-chloro-N-(3-(trifluoromethyl)cyclohexyl)phenylsulfonamido)methyl)benzoate] came in with an IC50 in test [1] of 7.3 nM.

In test [1], `COC(=O)c1ccc(CN(C2CCCCC2F)S(=O)(=O)c2ccc(Cl)cc2)cc1` (centres unmarked) [Example 56, Methyl 4-((4-chloro-N-(2-fluorocyclohexyl)phenylsulfonamido)methyl)benzoate] had an IC50 of 4.05 nM.

Regarding `C[C@H](CO)NC(=O)c1ccc(CN(C2CCCCC2F)S(=O)(=O)c2ccc(Cl)cc2)cc1` (stereo partly drawn) [Example 60, 4-((4-Chloro-N-(2-fluorocyclohexyl)phenylsulfonamido)methyl)-N—((R)-1-hydroxypropan-2-yl)benzamide], the IC50 in test [1] was 4.58 nM and 7 nM. Further, in test [2], the midpoint of inhibition, the IC50, lay at 1550 nM and the “Notch Elisa/Aβ42” value stood at 305.

`COC(=O)c1ccc(CN(C2CCCCC2F)S(=O)(=O)c2ccc(Cl)nc2)cc1` (centres unmarked) [Example 61, Methyl 4-((6-chloro-N-(2-fluorocyclohexyl)pyridine-3-sulfonamido)methyl)benzoate] gave an IC50 in test [1] of 10.4 nM.

As for `O=C(O)c1ccc(CN(C2CCCCC2F)S(=O)(=O)c2ccc(Cl)nc2)cc1` (centres unmarked) [Example 62, 4-((6-Chloro-N-(2-fluorocyclohexyl)pyridine-3-sulfonamido)methyl)benzoic acid], the IC50 in test [1] was 135 nM and 261 nM. Besides, in test [2], the midpoint of inhibition, the IC50, lay at 5200 nM and the “Notch Elisa/Aβ42” value was 26.

With `O=C(O)c1ccc(CN(C2CCCC(C(F)(F)F)C2)S(=O)(=O)c2ccc(Cl)nc2)cc1` (centres unmarked) [Example 63, 4-((6-Chloro-N-(3-(trifluoromethyl)cyclohexyl)pyridine-3-sulfonamido)methyl)benzoic acid], the inhibition at 1 µM in test [1] (read-out: Aβ42 % Inh) is 87%.

In test [1], `COC(=O)c1ccc(CN(C2CCCC(C(F)(F)F)C2)S(=O)(=O)c2ccc(Cl)nc2)cc1` (centres unmarked) [Example 70, Methyl 4-((6-chloro-N-(3-(trifluoromethyl)cyclohexyl)pyridine-3-sulfonamido)methyl)benzoate] displayed an IC50 of 26.8 nM. This lies in the double-digit nanomolar range.

In turn, `O=C(O)CNC(=O)c1ccc(CN(C2CCCCC2F)S(=O)(=O)c2ccc(Cl)cc2)cc1` (centres unmarked) [Example 79, 2-(4-((4-Chloro-N-(2-fluorocyclohexyl)phenylsulfonamido)methyl)benzamido)acetic acid] displayed an IC50 in test [1] of 3620 nM.

Consider `CN(C)CCNC(=O)c1ccc(CN(C2CCCCC2F)S(=O)(=O)c2ccc(Cl)nc2)cc1` (centres unmarked) [Example 80, 4-((6-Chloro-N-(2-fluorocyclohexyl)pyridine-3-sulfonamido)methyl)-N-(2-(dimethylamino)ethyl)benzamide hydrochloride], for which, in test [1] (read-out: Aβ42 % Inh), the inhibition at 1 µM came out at 65%.

For the molecule `O=C(O)c1ccc(CN(C2CCC(F)CC2)S(=O)(=O)c2ccc(Cl)cc2)cc1` (centres unmarked) [Example 82, 4-((4-Chloro-N-(4-fluorocyclohexyl)phenylsulfonamido)methyl)benzoic acid], the inhibition at 30 µM in test [1] (at 30 μM (concentration in brackets), read-out: Aβ42 % Inh) was determined as 0%.

In the case of `O=C(O)c1ccc(CN([C@@H]2CCCC[C@H]2F)S(=O)(=O)c2ccc(Cl)cc2)cc1` [Example 84, 4-((4-Chloro-N-((1R,2R)-2-fluorocyclohexyl)phenylsulfonamido)methyl)benzoic acid], the half-inhibitory concentration (IC50) in test [1] came out at 141 nM.

In turn, `COC[C@H](C)NC(=O)c1ccc(CN(C2CCCCC2F)S(=O)(=O)c2ccc(Cl)cc2)cc1` (stereo partly drawn) [Example 86, 4-((4-Chloro-N-(2-fluorocyclohexyl)phenylsulfonamido)methyl)-N—((S)-1-methoxypropan-2-yl)benzamide] returned a 50% inhibitory concentration (IC50) in test [1] of 103 nM. This IC50 and that of the molecule before are within 1.5-fold of each other.

`O=C(NCCN1CCCC1)c1ccc(CN(C2CCCCC2F)S(=O)(=O)c2ccc(Cl)cc2)cc1` (centres unmarked) [Example 87, 4-((4-Chloro-N-(2-fluorocyclohexyl)phenylsulfonamido)methyl)-N-(2-(pyrrolidin-1-yl)ethyl)benzamide]: in test [1], the IC50 came out at 6.91 nM. Compared with the last molecule, the IC50 is about 15-fold lower.

Consider `COC[C@@H](C)NC(=O)c1ccc(CN(C2CCCCC2F)S(=O)(=O)c2ccc(Cl)cc2)cc1` (stereo partly drawn) [Example 88, 4-((4-Chloro-N-(2-fluorocyclohexyl)phenylsulfonamido)methyl)-N-((R)-1-methoxypropan-2-yl)benzamide], for which, in test [1], the IC50 worked out at 7.31 nM. This IC50 and that of the molecule before are within 1.5-fold of each other.

In the case of `C[C@@H](CO)NC(=O)c1ccc(CN(C2CCCCC2F)S(=O)(=O)c2ccc(Cl)cc2)cc1` (stereo partly drawn) [Example 89, 4-((4-Chloro-N-(2-fluorocyclohexyl)phenylsulfonamido)methyl)-N—((S)-1-hydroxypropan-2-yl)benzamide], in test [1], the half-maximal inhibitory concentration (IC50) is 35.4 nM.

“Methyl 3-(4-((4-chloro-N-(2-methylcyclohexyl)phenylsulfonamido)methyl)benzamido)propanoate [Example 35]” gave an IC50 in test [1] of 29.7 nM.

The term IC50 denotes the concentration that inhibits the measured activity by half. A lower IC50 goes with greater potency in that assay.
